From patent US10526320B2, “Pyrrolidine derivatives as PPAR agonists” (GUANGDONG RAYNOVENT BIOTECH CO., LTD., priority 2016, dated 2020)
Read-outs that look alike come from different tables or passages of the source.

Assays:
Type in all cases: cell-based
PPAR Gamma = target: T1, PPAR Gamma (Homo sapiens, UniProt P37231); assay: PathHunter NHR protein interaction / nuclear translocation agonist test, PPAR Gamma; details: for Emax: read-out: PPAR Gamma Maximum Activation Response %
T1 sequence (P37231 1-505): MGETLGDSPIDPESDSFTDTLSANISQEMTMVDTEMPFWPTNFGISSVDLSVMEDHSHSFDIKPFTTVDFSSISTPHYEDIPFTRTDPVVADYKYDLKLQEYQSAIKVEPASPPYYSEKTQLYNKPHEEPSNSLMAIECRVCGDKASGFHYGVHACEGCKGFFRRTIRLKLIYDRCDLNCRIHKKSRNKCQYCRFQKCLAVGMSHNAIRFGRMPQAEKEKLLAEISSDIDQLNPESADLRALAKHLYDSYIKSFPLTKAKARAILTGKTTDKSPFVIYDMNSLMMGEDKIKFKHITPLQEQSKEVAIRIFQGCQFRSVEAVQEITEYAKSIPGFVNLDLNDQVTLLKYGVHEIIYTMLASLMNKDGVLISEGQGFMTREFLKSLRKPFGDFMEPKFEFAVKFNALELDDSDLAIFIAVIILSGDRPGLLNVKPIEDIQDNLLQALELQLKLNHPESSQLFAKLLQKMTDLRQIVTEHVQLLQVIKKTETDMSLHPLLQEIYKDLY

PPAR Alpha = target: T2, PPAR Alpha (Homo sapiens, UniProt Q07869); assay: PathHunter NHR protein interaction / nuclear translocation agonist test, PPAR Alpha; details: for Emax: read-out: PPAR Alpha Maximum Activation Response %
T2 sequence (Q07869 1-468): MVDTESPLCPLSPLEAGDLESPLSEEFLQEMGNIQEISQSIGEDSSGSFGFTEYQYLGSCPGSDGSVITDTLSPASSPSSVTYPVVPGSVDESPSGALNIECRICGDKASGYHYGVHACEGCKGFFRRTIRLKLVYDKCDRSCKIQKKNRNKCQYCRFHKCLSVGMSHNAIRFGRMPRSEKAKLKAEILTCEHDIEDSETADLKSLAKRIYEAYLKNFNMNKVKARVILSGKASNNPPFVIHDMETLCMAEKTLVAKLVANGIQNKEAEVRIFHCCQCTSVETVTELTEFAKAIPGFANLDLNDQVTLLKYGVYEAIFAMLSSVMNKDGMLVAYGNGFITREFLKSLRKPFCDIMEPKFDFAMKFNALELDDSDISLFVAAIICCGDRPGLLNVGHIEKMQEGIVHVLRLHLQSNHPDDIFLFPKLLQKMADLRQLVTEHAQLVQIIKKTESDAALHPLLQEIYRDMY

PPAR Delta = target: T3, PPAR Delta (Homo sapiens, UniProt Q03181); assay: PathHunter NHR protein interaction / nuclear translocation agonist test, PPAR Delta; details: for Emax: read-out: PPAR Delta Maximum Activation Response %
T3 sequence (Q03181 1-441): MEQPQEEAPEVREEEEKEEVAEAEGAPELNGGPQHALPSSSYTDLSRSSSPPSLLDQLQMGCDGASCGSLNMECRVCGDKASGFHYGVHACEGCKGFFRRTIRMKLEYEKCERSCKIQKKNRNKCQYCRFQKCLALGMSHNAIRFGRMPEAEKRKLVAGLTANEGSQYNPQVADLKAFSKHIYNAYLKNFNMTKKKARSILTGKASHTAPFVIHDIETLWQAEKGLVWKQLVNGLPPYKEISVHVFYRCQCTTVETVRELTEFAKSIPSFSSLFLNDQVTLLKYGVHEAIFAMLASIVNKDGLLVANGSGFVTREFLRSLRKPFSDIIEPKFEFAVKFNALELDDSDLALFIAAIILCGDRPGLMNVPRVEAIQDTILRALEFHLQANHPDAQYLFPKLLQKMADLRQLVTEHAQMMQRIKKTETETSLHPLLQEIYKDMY

[1] = agonist mode, read-out: PPAR Gamma EC50
[2] = relative to known PPARγ agonist Troglitazone = 100%
[3] = agonist mode, read-out: PPAR Alpha EC50
[4] = agonist mode, read-out: PPAR Delta EC50
[5] = relative to known PPARδ agonist L-165,041 = 100%

Compound	EC50 (PPAR Gamma; PPAR Gamma EC50 nM) [nM]	Emax (PPAR Gamma) [%]	EC50 (PPAR Alpha; PPAR Alpha EC50 nM) [nM]	Emax (PPAR Alpha) [%]	EC50 (PPAR Delta; PPAR Delta EC50 nM) [nM]	Emax (PPAR Delta) [%]	EC50 (PPAR Gamma; [1]) [nM]	Emax (PPAR Gamma; [2]) [%]	EC50 (PPAR Alpha; [3]) [nM]	EC50 (PPAR Delta; [4]) [nM]	Emax (PPAR Delta; [5]) [%]	PPAR Alpha Maximum Activation Response % (PPAR Alpha)	PPAR Delta Maximum Activation Response % (PPAR Delta)
CSc1ccc(C(=O)[C@H]2CN(C(=O)Oc3ccc(C)nc3)C[C@@H]2Cc2cc(C)c(OC(C)(C)C(=O)O)c(C)c2)cc1 (racemic) [Compound 53]	> 250	80 to 100	100 to 150	80 to 100	100 to 150	50 to 80							
CSc1ccc(C(=O)[C@H]2CN(C(=O)OC3CCC(C)CC3)C[C@@H]2Cc2cc(C)c(OC(C)(C)C(=O)O)c(C)c2)cc1 (mixture of isomers) [Compound 54]				80 to 100			200 to 250	80 to 100	< 100	100 to 150	80 to 100		
CSc1ccc(C(=O)[C@H]2CN(C)C[C@@H]2CCc2cc(C)c(OC(C)(C)C(=O)O)c(C)c2)cc1 (racemic) [Compound 55]	> 250	< 50	> 250	< 50	200 to 250	50 to 80							
CSc1ccc(C(=O)[C@H]2CNC[C@@H]2CCc2cc(C)c(OC(C)(C)C(=O)O)c(C)c2)cc1 (racemic) [Compound 56]		< 50		< 50		50 to 80	> 250		> 250	200 to 250			
Cc1cc(CC[C@H]2CN(C(=O)Oc3ccccc3)C[C@@H]2C(=O)c2ccc([S+](C)[O-])cc2)cc(C)c1OC(C)(C)C(=O)O (mixture of isomers) [Compound 67]				80 to 100		80 to 100	> 250	80 to 100		> 250			
Cc1cc(CC[C@H]2CN(C(=O)Oc3ccccc3)C[C@@H]2C(=O)c2ccc(S(C)(=O)=O)cc2)cc(C)c1OC(C)(C)C(=O)O (racemic) [Compound 68]				80 to 100		80 to 100	> 250	80 to 100		> 250			
COC(=O)N1C[C@@H](C(=O)c2ccc(SC)cc2)[C@H](c2cc(C)c(OC(C)(C)C(=O)O)c(C)c2)C1 (single isomer, unassigned) [Compound 5]		< 50				50 to 80	> 250		> 250	100 to 150		I (key: 100% ≥ I ≥ 80%; 80% ≥ II ≥ 50%; III < 50%)	
CSc1ccc(C(=O)C2CN(C(=O)Oc3ccc(Cl)cc3)CC2c2cc(C)c(OC(C)(C)C(=O)O)c(C)c2)cc1 (single isomer, unassigned) [Compound 13]		80 to 100		50 to 80		50 to 80	> 250		< 100	< 100			
CSc1ccc(C(=O)C2CN(C(=O)Oc3ccc(Cl)cc3)CC2c2cc(C)c(OC(C)(C)C(=O)O)c(C)c2)cc1 (single isomer, unassigned) [Compound 14]							> 250		< 100	< 100			
CSc1ccc(C(=O)C2CN(C(=O)Oc3ccc(Cl)cc3)CC2c2cccc(OC(C)(C)C(=O)O)c2)cc1 (single isomer, unassigned) [Compound 34]		80 to 100					> 250		< 100	> 250		I (key: 100% ≥ I ≥ 80%; 80% ≥ II ≥ 50%; III < 50%)	III (key: 100% ≥ I ≥ 80%; 80% ≥ II ≥ 50%; III < 50%)
Cc1cc(CCC2CN(C(=O)Oc3ccccc3)CC2C(=O)c2ccc(Cl)s2)cc(C)c1OC(C)(C)C(=O)O (single isomer, unassigned) [Compound 47]				80 to 100			150 to 200	80 to 100	< 100	< 100	80 to 100		
COC(=O)N1CC(CCc2cc(C)c(OC(C)(C)C(=O)O)c(C)c2)C(C(=O)c2ccc(SC)cc2)C1 (single isomer, unassigned) [Compound 57]		50 to 80		80 to 100		50 to 80	200 to 250		< 100	< 100			
CSc1ccc(C(=O)C2CN(C(=O)OC(C)C)CC2CCc2cc(C)c(OC(C)(C)C(=O)O)c(C)c2)cc1 (single isomer, unassigned) [Compound 58]		50 to 80		80 to 100		50 to 80	200 to 250		100 to 150	< 100			
Cc1cc(CCC2CN(C(=O)Oc3ccccc3)CC2C(=O)c2ccc(F)cc2)cc(C)c1OC(C)(C)C(=O)O (single isomer, unassigned) [Compound 63]				80 to 100			200 to 250	80 to 100	< 100	< 100	80 to 100		
Cc1cc(CCC2CN(C(=O)Oc3ccccc3)CC2C(=O)c2ccc(Cl)cc2)cc(C)c1OC(C)(C)C(=O)O (single isomer, unassigned) [Compound 65]						80 to 100	200 to 250		< 100	< 100			
Cc1cc(CCC2CN(C(=O)Oc3ccccc3)CC2C(=O)c2ccc(Cl)cc2)cc(C)c1OC(C)(C)C(=O)O (single isomer, unassigned) [Compound 66]							150 to 200		< 100	< 100			I (key: 100% ≥ I ≥ 80%; 80% ≥ II ≥ 50%; III < 50%)
Cc1cc(CC2CN(C(=O)Oc3ccccc3)CC2C(=O)c2ccc(F)cc2)cc(C)c1OC(C)(C)C(=O)O (single isomer, unassigned) [Compound 69]				80 to 100			150 to 200	80 to 100	< 100	< 100	80 to 100		
Cc1cc(CC2CN(C(=O)Oc3ccccc3)CC2C(=O)c2ccc(Cl)cc2)cc(C)c1OC(C)(C)C(=O)O (single isomer, unassigned) [Compound 70]				80 to 100			150 to 200	80 to 100	< 100	< 100	80 to 100		
CSc1ccc(C(=O)C2CN(C(=O)Oc3ccccc3)CC2Cc2ccc(OC(C)(C)C(=O)O)cc2)cc1 (single isomer, unassigned) [Compound 76]				80 to 100			> 250	80 to 100	100 to 150	100 to 150	80 to 100		
CSc1ccc(C(=O)C2CN(C(=O)Oc3ccccc3)CC2Cc2ccc(OC(C)(C)C(=O)O)c(C)c2)cc1 (single isomer, unassigned) [Compound 77]				80 to 100			> 250	80 to 100	150 to 200	150 to 200	80 to 100		
CSc1ccc(C(=O)C2CN(C(=O)Oc3ccccc3)CC2Cc2ccc(OC(C)(C)C(=O)O)c(F)c2)cc1 (single isomer, unassigned) [Compound 78]				80 to 100			> 250	80 to 100	100 to 150	100 to 150	80 to 100		
CSc1ccc(C(=O)C2CN(C(=O)Oc3ccccc3)CC2CCc2ccc(OC(C)(C)C(=O)O)cc2)cc1 (single isomer, unassigned) [Compound 80]				80 to 100			> 250	80 to 100	< 100	150 to 200	80 to 100		
CSc1ccc(C(=O)C2CN(C(=O)Oc3ccccc3)CC2CCc2ccc(OC(C)(C)C(=O)O)c(C)c2)cc1 (single isomer, unassigned) [Compound 81]				80 to 100			200 to 250	80 to 100	< 100	100 to 150	80 to 100		
CSc1ccc(C(=O)C2CN(C(=O)Oc3ccccc3)CC2CCc2ccc(OC(C)(C)C(=O)O)c(F)c2)cc1 (single isomer, unassigned) [Compound 82]				80 to 100			200 to 250	80 to 100	< 100	100 to 150	80 to 100		
